Experiment [1] concerns Rb phosphorylation in cells. As to conditions: literature report; cited from earlier work.
Experiment [2] deals with Rb phosphorylation in tumor xenografts. To be noted: literature report; cited from earlier work.
The subject of experiment [3] is Rb phosphorylation in rat PBMCs. Briefly: Rb phosphorylation in rat PBMCs following ex vivo PMA activation. To be noted: 300 ng/ml for 24 hours, Western blot. The format is cell-based. The procedure: PBMCs are not cycling cells and need to be stimulated with the mitogen PMA to enter the cell cycle.
Blood from three rats at the specified times was pooled (˜10 mls total) and PBMCs were separated using the Lymphocyte Separation Medium (LSM) and protocol supplied by ICN Biomedicals Inc. (Costa Mesa, Calif.). Briefly whole blood was diluted 1:1 with cold HBSS (Hanks Balanced Salt Solution), layered onto the LSM and centrifuged. The layer of mononuclear cells above the LSM was collected, transferred to a new tube and washed once with cold HBSS. Cells were resuspended in RPMI 1640, 10% HI-FBS, 2 mM L-glutamine and 0.01 mg/ml Gentamicin Reagent Solution (GIBCO/Invitrogen). Cells were seeded into T-75 cm^2 flasks at ≦1×10^7 cells in 20 mls medium and stimulated with 300 ng/ml of phorbol 12-myristate 13-acetate (PMA) for 24 hours. […]
(§1) PBMCs were collected by transferring the cells, including attached cells and those in suspension, into 50 ml tubes. […] Samples were sonicated on ice for 30 seconds, clarified by centrifugation at 16,000×g for 10 minutes at 4° C. and protein concentrations determined using Non-Interfering Protein Assay Kit (Geno Technology Incorporated, Maplewood, Mo.). […] For Western blotting, total Rb was detected using antibody from Pharmingen (BD Bioscience, San Diego, Calif.) at a dilution of 1:2000. […]
(In general: A western blot detects proteins with antibodies after separation by electrophoresis.)

Experiment [4] deals with Rb phosphorylation in human PBMCs. Briefly: Rb phosphorylation in human PBMCs stimulated ex vivo with PMA. The format is cell-based. As to the method: Approximately 10 mls of blood was collected from five healthy human volunteers into sodium heparin treated Vacutainer blood collection tubes by Employee Health Services. PBMCs were separated using the Lymphocyte Separation Medium (LSM) and protocol supplied by ICN Biomedicals Inc. (Costa Mesa, Calif.). Briefly whole blood was diluted 1:1 with cold HBSS (Hanks Balanced Salt Solution), layered onto the LSM and centrifuged. The band of mononuclear cells above the LSM was collected, transferred to a new tube and washed once with cold HBSS. Cells were resuspended in RPMI 1640, 10% HI-FBS, 2 mM L-glutamine and 0.01 mg/ml Gentamicin Reagent Solution (GIBCO/Invitrogen). […]
as §1, with “1:2000. Lysates were analysed by Western blotting for Rb phosphorylation using polyclonal antibodies against phosphorylated serine 795, serine 780, threonine 821 and serine 807/811 in human Rb (FIG. 8).” for “1:2000.”

Another experiment relates to phosphorylated Rb. To be noted: phase 1, in combination with docetaxel, cited from earlier work.

As for `CC(C)(C)c1cnc(CSc2cnc(NC(=O)C3CCNCC3)s2)o1` [BMS-387032], the “Rb phosphorylation in cells” value in experiment [1] was “Inhibition of Rb phosphorylation”.
As to `CC[C@H](CO)Nc1nc(NCc2ccccc2)c2ncn(C(C)C)c2n1` [CYC 202, r-Roscovitine], the “Rb phosphorylation in cells” value in experiment [1] was “Inhibition of Rb phosphorylation”.
As for `CC(=O)c1c(C)c2cnc(Nc3ccc(N4CCNCC4)cn3)nc2n(C2CCCC2)c1=O` [PD 0332991], the “Rb phosphorylation in cells” value in experiment [1] is listed as “Inhibition of Rb phosphorylation”. Further, the “Rb phosphorylation in tumor xenografts” value in experiment [2] is “Inhibition of Rb phosphorylation”.
For the compound `CCCCCCCCCCCCCC(=O)O[C@@H]1[C@@H](C)[C@@]2(O)[C@@H](C=C(CO)C[C@]3(O)C(=O)C(C)=C[C@@H]23)[C@@H]2C(C)(C)[C@]12OC(C)=O` [PMA, phorbol 12-myristate 13-acetate], the “Phosphorylated Rb in rat PBMCs after mitogen stimulation” value in experiment [3] is recorded as “sufficient for detection of phosphorylated Rb”. For the same compound, in experiment [4] (300 ng/ml, 24, 48 and 72 hours post stimulation), the “Phosphorylation at serine 795 and serine 780 in human PBMCs” value was “not significant until 48-72 hours”. In experiment [4] (300 ng/ml, 24 hours post mitogen addition, five donors), the “Phosphorylation at serine 807/811 and threonine 821 sites in human PBMCs” value is “Significant phosphorylation”.
On to `CN1CC[C@H](c2c(O)cc(O)c3c(=O)cc(-c4ccccc4Cl)oc23)[C@H](O)C1` [flavopiridol], for which the “Rb phosphorylation in cells” value in experiment [1] is listed as “Inhibition of Rb phosphorylation”. For the same compound, the “pRb in paired tumors” value in the experiment on phosphorylated Rb (6 paired tumors) is “no significant changes”. Also, the “pRb in buccal mucosa biopsies post treatment” value in the experiment on phosphorylated Rb (patients with metastatic tumors) is given as “somewhat decreased”.
